Test results as given in article PMC6570535 (ACS infectious diseases, 2019).
No end group written: not given here.

Key:
fsr QS circuitry [1] = biological target: T1, fsr QS circuitry (Enterococcus faecalis, UniProt A0ACD6TCR9); settings: read-out: EC50 [95% CI]; previously published analog shown for comparison; ref [19]; cited from earlier work
fsr QS circuitry [2] = biological target: T1, fsr QS circuitry; test: β-galactosidase cell-based bacterial reporter assay, QS activation; settings: E. faecalis pGelE-lacZ reporter strain
fsr QS circuitry [3] = biological target: T1, fsr QS circuitry; test: β-galactosidase reporter assay, inhibition of competitor GBAP signal; assay type: cell-based, E. faecalis; settings: competition with GBAP

Substance	EC50 (fsr QS circuitry [1])	activity as activator (fsr QS circuitry [2])	inhibitory activity (fsr QS circuitry [3])
Ac-GBAP-Des(Q1N2) (Ac-SPNIFGQWM; also: cyclic, ring not given here) [Peptide 2]	1.01 nM		
Ac-GBAP-Des(Q1N2)[N-MeG8] [Peptide 7]		lost all activity	neither of these three analogs exhibit any inhibitory activity
Ac-GBAP-Des(Q1N2)[N-MeQ9] [Peptide 8]		lost all activity	neither of these three analogs exhibit any inhibitory activity
GBAP-F7A	> 1000 nM		
